The results in this text go back to patent publication US5102888A, “Quinoline type mevalonolactones useful for treating hyperlipidemia and related diseases” (Nissan Chemical Industries Ltd., priority 1987, dated 1992).

The target of the assay is cholesterol biosynthesis wherein HMG-CoA reductase acts as a rate limiting enzyme (rat liver microsome and sup fraction). In words: Test A: Inhibition of Cholesterol Biosynthesis from Acetate In Vitro. It counts as biochemical, male Wistar rat. The following applies: for IC50: [2-14C]sodium acetate incorporation, rat liver microsome + sup fraction, 2 hours, 37° C., read-out: I50 (Inhibitory activities by Test A); for Relative activities by Test A: relative to activity of CS-514 evaluated to be 1. As to the method:
Enzyme solution was prepared from liver of male Wistar rat billialy cannulated and discharged bile for over 24 hours. Liver was cut out at mid-dark and microsome and supernatant fraction which was precipitable with 40-80% of saturation of ammonium sulfate (sup fraction) were prepared from liver homogenate according to the modified method of Knauss et. al.; Kuroda, M., et. al., Biochim. Biophys. Acta, 489, 119 (1977). For assay of cholesterol biosynthesis, microsome (0.1 mg protein) and sup fraction (1.0 mg protein) were incubated for 2 hours at 37° C. in 200 μl of the reaction mixture containing ATP; 1 mM, Glutathione; 6 mM, Glucose-1-phosphate; 10 mM, NAD; 0.25 mM, NADP; 0.25 mM, CoA; 0.04 mM and 0.2 mM [2-^14 C]sodium acetate (0.2 μCi) with 4 μl of test compound solution dissolved in water or dimethyl sulfoxide. To stop reaction and saponify, 1 ml of 15% EtOH--KOH was added to the reactions and heated at 75° C. for 1 hour. […] Inhibitory activity of compounds was indicated with IC50.

Structures can show the parent of a compound that is named as a salt.

`CCC(C)C(=O)OC1CC(O)C=C2C=CC(C)C(CCC(O)CC(O)CC(=O)O)C21` (stereo not shown) [CS-514, reference compound]: the IC50 turned out to be 9 nM.
For `CC(C)c1nc2c(Cl)cc(Cl)cc2c(-c2ccc(F)cc2)c1/C=C/C(O)CC(O)CC(=O)O` (stereo not shown) [Compound I-522], the “Relative activities by Test A” value worked out at 0.76.
With `CCOC(=O)CC(O)CC(O)/C=C/c1c(CC)nc2ccccc2c1-c1ccc(F)cc1` (stereo not shown) [Compound I-117], the “Relative activities by Test A” value is listed as 0.37.
In the case of `CC(C)c1nc2ccccc2c(-c2ccc(F)cc2)c1/C=C/C(O)CC(O)CC(=O)O` (stereo not shown) [Compound I-51, Sodium salt of (E)-3,5-dihydroxy-7-[4'-(4"-fluorophenyl)-2'-(1"-methylethyl)-quinolin-3'-yl]-hept-6-enoic acid], the IC50 came to 10 nM.
